From patent publication US5225607A, “Insecticidal ethers” (Imperial Chemical Industries PLC, priority 1985, dated 1993)

Legend:
Format in all cases: in vivo
[1] = tested on: Musca domestica; assay: Knockdown test, Musca domestica (houseflies - adults); conditions: cotton wool/sugar, 4 hours, read-out: grading of knockdown, MD/KD
Summary of the method: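 Adult houseflies were exposed to the compound as aqueous acetone preparations with 0.01% Lissapol NX wetting agent, at 500, 250 or 100 ppm. Knockdown was graded A (80–100%), B (50–79%) or C (<50%).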

[2] = tested on: Diabrotica balteata; assay: Insecticidal test, Diabrotica balteata (rootworm larvae), residual; conditions: 72 h, filter paper/maize seed, 3 days, read-out: grading of mortality, DB
Summary of the method: (§1)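 Compound dissolved in acetone, diluted with water containing 0.01% wetting agent to 500, 250 or 100 ppm. Pests on host plant or food; pests and/or medium treated. Mortality scored 1–3 days later, graded A (80–100%; 70–100% for S. exigua), B (50–79%; 50–69%), C (<50%).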

[3] = tested on: Myzus persicae; assay: Insecticidal test, Myzus persicae (aphids), contact; conditions: 72 h, Chinese Cabbage leaf, 3 days, read-out: grading of mortality, MP
Summary of the method: as §1

[4] = tested on: Nilaparvata lugens; assay: Insecticidal test, Nilaparvata lugens (brown planthopper), contact; conditions: 72 h, Cabbage leaf, 3 days, read-out: grading of mortality, NL
Summary of the method: as §1

[5] = tested on: Blattella germanica; assay: Insecticidal test, Blattella germanica (cockroach nymphs), residual; conditions: 72 h, plastic pot, 3 days, read-out: grading of mortality, BG
Summary of the method: as §1

[6] = tested on: Musca domestica; assay: Insecticidal test, Musca domestica (houseflies - adults), contact; conditions: 24 h, cotton wool/sugar, 1 day, read-out: grading of mortality, MD
Summary of the method: as §1

[7] = tested on: Tetranychus urticae; assay: Insecticidal/acaricidal test, Tetranychus urticae (spider mites - adult), contact; conditions: 72 h, French bean leaf, 3 days, read-out: grading of mortality, TU
Summary of the method: as §1

[8] = tested on: Spodoptera exigua; assay: Insecticidal test, Spodoptera exigua (lesser armyworm), residual; conditions: 72 h, cotton leaf, 3 days, read-out: grading of mortality, SE
Procedure: The activity of the Product was determined using a variety of insect and acarine pests. The Product was used in the form of liquid preparations containing 500, 250 or 100 parts per million (ppm) by weight of the Product. The preparations were made by dissolving the Product in acetone and diluting the solutions with water containing 0.01% by weight of a wetting agent sold under the trade name "LISSAPOL" NX until the liquid preparations contained the required concentratio of the Product. "Lissapol" is a Registered Trade Mark.
The test procedure adopted with regard to each pest was basically the same and comprised supporting a number of the pests on a medium which was usually a host plant or a foodstuff on which the pests feed, and treating either or both the pests and the medium with the preparations. The mortality of the pests was then assessed at periods usually varying from one to three days after the treatment.
The results of the tests are given in Table IV for each of the Products, at the rate in parts per million given in the second column as a grading of mortality designated as A, B or C wherein A indicates 80-100% mortality or knockdown (70-100% in the case of Spodoptera exigua), B indicates 50-79% mortality or knockdown (50-69% in the case of Spodoptera exigua) and C indicates less than 50% mortality or knockdown.
In Table IV the pest organism used is designated by a letter code and the pest species, the support medium or food, and the type and duration of test is given in Table III.

[9] = tested on: Heliothis virescens; assay: whole plant or invertebrate; conditions: in Gossypium hirsutum, 72 h, read-out: grading of mortality, HV
Summary of the method: as §1

SMILES	pest or weed control at 500 ppm [1] [%]	mortality at 500 ppm [2] [%]	mortality at 500 ppm [3] [%]	mortality at 500 ppm [4] [%]	mortality at 500 ppm [5] [%]	mortality at 500 ppm [6] [%]	mortality at 500 ppm [7] [%]	mortality at 500 ppm [8] [%]	mortality at 500 ppm [9] [%]	other results
CCOc1ccc([C@H](CO[C@@H](C#N)c2cccc(Oc3ccccc3)c2)C(F)(F)F)cc1 (racemic) [Compound 252, (2RS)-1,1,1-trifluoro-2-(4-ethoxyphenyl)-3-[(RS)-α-cyano-3-phenoxybenzyloxy]propane]	80 to 100	80 to 100	80 to 100	80 to 100	50 to 79	80 to 100	< 50	70 to 100	80 to 100	–
CCOc1ccc(C(COCc2cccc(Oc3ccc(F)cc3F)c2)C(F)(F)F)cc1 (stereo not drawn) [Compound 10, 1,1,1-Trifluoro-2-(4-ethoxyphenyl)-3-(3-(2,4-difluorophenoxy)benzyloxy)propane]	–	–	–	–	–	–	–	–	–	pest or weed control at 250 ppm [1]: 80 to 100%; mortality at 250 ppm [2]: 80 to 100%; mortality at 250 ppm [3]: 50 to 79%; mortality at 250 ppm [4]: 80 to 100%; mortality at 250 ppm [5]: 80 to 100%; mortality at 250 ppm [6]: 80 to 100%; mortality at 250 ppm [7]: < 50%; mortality at 250 ppm [8]: 70 to 100%; mortality at 250 ppm [9]: 80 to 100%
OC(COCc1cccc(Oc2ccc(Cl)cc2)c1)(c1ccc(OC(F)(F)F)cc1)C(F)(F)F (stereo not drawn) [Compound 135, 1,1,1-Trifluoro-2-(4-trifluoromethoxyphenyl)-3-(3-(4-chlorophenoxy)benzyloxy)propan-2-ol]	–	–	–	–	–	–	–	–	–	pest or weed control at 250 ppm [1]: 80 to 100%; mortality at 250 ppm [2]: < 50%; mortality at 250 ppm [3]: < 50%; mortality at 250 ppm [4]: < 50%; mortality at 250 ppm [5]: < 50%; mortality at 250 ppm [6]: < 50%; mortality at 250 ppm [7]: < 50%; mortality at 250 ppm [8]: 70 to 100%; mortality at 250 ppm [9]: 80 to 100%
FC(F)(F)c1ccc(C(F)(COCc2cccc(Oc3ccccc3)c2)C(F)(F)F)cc1 (stereo not drawn) [Compound 84, 1,1,1,2-Tetrafluoro-2-(4-trifluoromethylphenyl)-3-(3-phenoxybenzyloxy)propane]	80 to 100	80 to 100	80 to 100	80 to 100	80 to 100	80 to 100	80 to 100	70 to 100	80 to 100	–
Fc1ccc(C(COCc2ccc(F)c(Oc3ccccc3)c2)C(F)(F)F)cc1 (stereo not drawn) [Compound 18, 1,1,1-Trifluoro-2-(4-fluorophenyl)-3-(3-phenoxy-4-fluorobenzyloxy)propane]	–	–	–	–	–	–	–	–	–	pest or weed control at 250 ppm [1]: 80 to 100%; mortality at 250 ppm [2]: 80 to 100%; mortality at 250 ppm [3]: 80 to 100%; mortality at 250 ppm [4]: 80 to 100%; mortality at 250 ppm [5]: 80 to 100%; mortality at 250 ppm [6]: 80 to 100%; mortality at 250 ppm [7]: 80 to 100%; mortality at 250 ppm [8]: 70 to 100%; mortality at 250 ppm [9]: 80 to 100%
COCc1ccc(C(COCc2cccc(Oc3ccc(Cl)cc3)c2)C(F)(F)F)cc1 (stereo not drawn) [Compound 23, 1,1,1-Trifluoro-2-(4-methoxymethylphenyl)-3-(3-(4-chlorophenoxy)benzyloxy)propane]	80 to 100	80 to 100	50 to 79	80 to 100	< 50	50 to 79	< 50	70 to 100	< 50	–
CCOc1ccc(C(COCc2cccc(Oc3ccc(Cl)cc3)c2)C(F)(F)F)cc1F (stereo not drawn) [Compound 13, 1,1,1-Trifluoro-2-(3-fluoro-4-ethoxyphenyl)-3-(3-(4-chlorophenoxy)benzyloxy)propane]	–	–	–	–	–	–	–	–	–	pest or weed control at 100 ppm ([1]; 100 ppm): 80 to 100%; mortality at 100 ppm ([2]; 100 ppm): 50 to 79%; mortality at 100 ppm ([3]; 100 ppm): 80 to 100%; mortality at 100 ppm ([4]; 100 ppm): 80 to 100%; mortality at 100 ppm ([5]; 100 ppm): 80 to 100%; mortality at 100 ppm ([6]; 100 ppm): 80 to 100%; mortality at 100 ppm ([7]; 100 ppm): < 50%; mortality at 100 ppm ([8]; 100 ppm): 70 to 100%; mortality at 100 ppm [9]: 80 to 100%
Cc1ccc(C(O)(COCc2cccc(Oc3ccccc3)c2)C(F)(F)F)cc1 (stereo not drawn) [Compound 120, 1,1,1-Trifluoro-2-(4-methylphenyl)-3-(3-phenoxybenzyloxy)propan-2-ol]	80 to 100	< 50	< 50	< 50	< 50	< 50	< 50	< 50	< 50	–
FC(F)(F)C(COCc1cccc(Oc2ccccc2)c1)c1ccc2c(c1)OCO2 (stereo not drawn) [Compound 31, 1,1,1-Trifluoro-2-(3,4-methylenedioxyphenyl)-3-(3-phenoxybenzyloxy)propane]	80 to 100	80 to 100	80 to 100	80 to 100	80 to 100	80 to 100	< 50	70 to 100	80 to 100	–
FC(F)(F)C(Cl)(COCc1cccc(Oc2ccc(Cl)cc2)c1)c1ccc2c(c1)OCO2 (stereo not drawn) [Compound 65, 1,1,1-Trifluoro-2-chloro-2-(3,4-methylenedioxyphenyl)-3-(3-(4-chlorophenoxy)-benzyloxy)propane]	< 50	< 50	< 50	< 50	80 to 100	< 50	< 50	50 to 69	80 to 100	–
FC(F)(F)C(Cl)(COCc1cccc(Oc2ccccc2)c1)c1ccc2c(c1)OCO2 (stereo not drawn) [Compound 64, 1,1,1-Trifluoro-2-chloro-2-(3,4-methylenedioxyphenyl)-3-(3-phenoxybenzyloxy)propane]	50 to 79	< 50	< 50	< 50	< 50	50 to 79	< 50	< 50	80 to 100	–
CCOc1ccc(C(COCc2cccc(Nc3ccc(F)cc3)c2)C(F)(F)F)cc1 (stereo not drawn) [Compound 11, 1,1,1-Trifluoro-2-(4-ethoxyphenyl)-3-(3-(4-fluorophenylamino)benzyloxy)propane]	80 to 100	< 50	< 50	80 to 100	50 to 79	50 to 79	< 50	50 to 69	< 50	–
CCOc1c(F)cc(C(COCc2cccc(Oc3ccccc3)c2)C(F)(F)F)cc1F (racemic) [Compound 163, (RS)-1,1,1-trifluoro-2-(3,5-difluoro-4-ethoxyphenyl)-3-(3-phenoxybenzyloxy)propane]	80 to 100	80 to 100	80 to 100	80 to 100	80 to 100	80 to 100	80 to 100	70 to 100	80 to 100	–
